Here are results for three molecules from paper PMC10761696, “Avapritinib-based SAR studies unveil a binding pocket in KIT and PDGFRA” (Nature Communications, 2024).

SMILES strings stand for the structures. Several values for one entry are separate records, joined by “and”; a condition that tells them apart may be missing. Equal values may be shown once. Read-outs that look alike come from different tables or passages of the source.

The conditions of series [1]: ref WO2022/081626; cited from earlier work.
For a further series, the target named is T1, PDGFRA-D842V (Homo sapiens, UniProt P16234, D842V).
T1 construct: purchased Invitrogen PV4203 (lot #2343231B)
T1 sequence (P16234 24-1089 D842V): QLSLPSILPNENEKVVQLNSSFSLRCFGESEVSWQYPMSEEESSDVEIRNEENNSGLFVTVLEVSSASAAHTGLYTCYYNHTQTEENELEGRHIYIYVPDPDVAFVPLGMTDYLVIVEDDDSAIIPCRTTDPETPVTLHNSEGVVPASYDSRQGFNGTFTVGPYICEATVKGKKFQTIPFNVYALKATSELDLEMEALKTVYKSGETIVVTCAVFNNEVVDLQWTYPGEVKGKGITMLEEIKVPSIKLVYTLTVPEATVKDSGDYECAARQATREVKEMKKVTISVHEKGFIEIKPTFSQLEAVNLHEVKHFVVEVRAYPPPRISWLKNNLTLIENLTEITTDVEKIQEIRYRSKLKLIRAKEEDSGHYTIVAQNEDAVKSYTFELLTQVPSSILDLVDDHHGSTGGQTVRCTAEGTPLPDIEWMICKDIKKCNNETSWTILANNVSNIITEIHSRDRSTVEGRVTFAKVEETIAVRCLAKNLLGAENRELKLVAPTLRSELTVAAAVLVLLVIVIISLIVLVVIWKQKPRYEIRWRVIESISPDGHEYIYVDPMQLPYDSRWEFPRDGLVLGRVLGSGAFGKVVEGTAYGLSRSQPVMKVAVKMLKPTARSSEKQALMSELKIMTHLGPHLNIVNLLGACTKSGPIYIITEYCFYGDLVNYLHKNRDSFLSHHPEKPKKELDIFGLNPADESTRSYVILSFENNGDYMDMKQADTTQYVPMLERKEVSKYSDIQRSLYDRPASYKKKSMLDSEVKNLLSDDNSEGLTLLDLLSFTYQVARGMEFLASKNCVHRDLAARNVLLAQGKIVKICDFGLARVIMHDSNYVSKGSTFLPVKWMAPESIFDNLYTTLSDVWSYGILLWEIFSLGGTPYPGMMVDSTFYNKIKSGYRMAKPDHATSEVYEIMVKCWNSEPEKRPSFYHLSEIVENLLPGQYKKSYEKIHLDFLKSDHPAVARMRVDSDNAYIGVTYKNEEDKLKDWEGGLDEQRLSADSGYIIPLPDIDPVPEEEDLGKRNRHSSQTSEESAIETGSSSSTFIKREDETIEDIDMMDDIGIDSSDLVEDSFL
Description: Activity-based HTRF KinEASE assay, PDGFRA-D842V. It counts as biochemical. In general terms: Time-resolved FRET reads energy transfer from a long-lived donor to a nearby acceptor.

In the next series the test system is T1-a-D842V. Briefly: CellTiter-Glo (CTG) GR50, T1-a-D842V. The settings on record: cellular assay. A general note: In ATP-based viability assays light output follows the ATP content of the culture.
The test system of a further series is GIST-T1. Briefly: CellTiter-Glo (CTG) GR50, GIST-T1. The settings on record: Homo sapiens, GISTT1, read-out: KIT CTG GR50 GIST-T1, mean ± s.d., n ≥ 3; GR50 half-maximal growth inhibition rate.
In a further series the test system is SK-LMS-1. Briefly: CellTiter-Glo (CTG) GR50, SK-LMS-1 control cell line. The settings on record: for CTG GR50 SK-LMS-1: mean ± s.d., n = 3, control cell line; for CTG GR50 SK-LMS-1, single determinations: raw data of Supp. Tab. 2, independent experiments, unit from Supp. Tab. 2.
A further series deals with ZR-75-1. Description: CellTiter-Glo (CTG) EC50, ZR-75-1 breast cancer control cell line. The series is classed as cell-based, human. The note with it: Homo sapiens. Here is the method: (§1) Cell line authenticity was confirmed by STR analysis at Eurofins Genomics. All cell lines were tested regularly for mycoplasma contamination using the Mycoplasmacheck Service at Eurofins Genomics. […] Following incubation for 24 h in a humidified atmosphere at 37 °C and 5% CO2, cells were treated with inhibitors in serial dilutions ranging from 30 µM down to 0.1 nM using an Echo650 acoustic liquid handler (Beckman Coulter). Cell viability was analyzed on day 5 using the CellTiter-Glo® assay (Promega) using 500 ms integration time. The obtained data were normalized to the plate positive control (30 µM staurosporine) and negative control (DMSO) and subsequently analyzed and fitted with the Quattro Software Suite (Quattro Research) using a four-parameter logistic model. As quality control, the Z’-factor was calculated from 16 positive and negative control values. Only assay results showing a Z’-factor ≥0.5 were used for further analysis. All experimental points were measured in duplicates for each plate and were independently replicated in at least three plates.

The target of a further series is KIT-D816H (Homo sapiens, UniProt P10721, D816H). Description: Activity-based HTRF KinEASE assay, KIT-D816H. It counts as biochemical.
Sequence of KIT-D816H (P10721 26-976 D816H): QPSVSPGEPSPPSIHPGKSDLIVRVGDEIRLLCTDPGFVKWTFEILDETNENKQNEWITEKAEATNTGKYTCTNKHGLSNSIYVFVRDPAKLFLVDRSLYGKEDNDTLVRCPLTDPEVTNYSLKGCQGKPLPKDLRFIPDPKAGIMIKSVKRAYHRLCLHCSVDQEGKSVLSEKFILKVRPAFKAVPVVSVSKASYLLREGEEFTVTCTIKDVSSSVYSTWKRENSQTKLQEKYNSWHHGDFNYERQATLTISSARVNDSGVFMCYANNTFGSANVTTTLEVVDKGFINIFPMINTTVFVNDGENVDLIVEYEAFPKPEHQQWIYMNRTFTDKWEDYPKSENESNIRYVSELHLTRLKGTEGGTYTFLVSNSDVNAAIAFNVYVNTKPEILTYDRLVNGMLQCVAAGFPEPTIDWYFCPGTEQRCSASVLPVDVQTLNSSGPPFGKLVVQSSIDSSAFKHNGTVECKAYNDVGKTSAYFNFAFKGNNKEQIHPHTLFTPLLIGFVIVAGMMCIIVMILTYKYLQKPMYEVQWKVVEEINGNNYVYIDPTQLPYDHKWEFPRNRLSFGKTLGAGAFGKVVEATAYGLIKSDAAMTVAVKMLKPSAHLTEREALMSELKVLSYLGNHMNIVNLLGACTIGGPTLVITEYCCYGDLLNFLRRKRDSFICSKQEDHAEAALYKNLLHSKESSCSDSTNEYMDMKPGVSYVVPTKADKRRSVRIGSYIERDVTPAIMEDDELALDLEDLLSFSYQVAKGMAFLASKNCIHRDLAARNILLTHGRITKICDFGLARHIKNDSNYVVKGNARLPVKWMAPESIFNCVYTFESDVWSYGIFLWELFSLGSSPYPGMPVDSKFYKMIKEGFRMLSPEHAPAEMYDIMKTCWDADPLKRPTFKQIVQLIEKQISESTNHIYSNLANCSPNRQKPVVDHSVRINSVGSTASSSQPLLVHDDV
For the next series, the system named is MDA-MB-175VII. Description: CellTiter-Glo (CTG) EC50, MDA-MB-175VII breast cancer control cell line. It counts as cell-based, human. Here is the method: as §1
The nature of series [2]: MDCKII-MDR1 permeability assay. The settings on record: dog; for Papp B→A at 2 h, 10 µM: MDCK-MDR1.
A further series deals with MDR1. Briefly: MDCKII-MDR1 permeability assay. The note with it: dog; for recovery at 2 h, 10 µM: MDCKII-MDR1, assay conc. 10.
Another series concerns GIST-48B. Description: CellTiter-Glo (CTG) GR50, GIST-48B control cell line (off-target toxicity).
A further series deals with T1-T670I. Description: CellTiter-Glo (CTG) GR50, T1-T670I. The note with it: Homo sapiens, read-out: KIT CTG GR50 T1-T670I, mean ± s.d., n ≥ 3.
In a further series the test system is T1-a-5258. Description: CellTiter-Glo (CTG) GR50, T1-a-5258. The settings on record: Homo sapiens.
Another series deals with T1-a-G680R. Briefly: CellTiter-Glo (CTG) GR50, T1-a-G680R. The note with it: raw data of Table 1, independent experiments; unit from Table 1.
The test system of the next series is T1-V654A. Description: CellTiter-Glo (CTG) GR50, T1-V654A. The note with it: Homo sapiens.
The test system of the next series is T1-D816E. Briefly: CellTiter-Glo (CTG) GR50, T1-D816E. The settings on record: mean ± s.d., n ≥ 3.
Series [3] deals with D842V-mutant gastrointestinal stromal tumors (GIST). The note with it: patients with D842V-mutant GIST; ref NAVIGATOR trial; cited from earlier work.
[4] abbreviates: Homo sapiens, MDA-MB-175-VII, read-out: CTG EC50 MDA-MB-175VII, single determinations, raw data of Supp. Tab. 2, independent experiments, unit from Supp. Tab. 2.
Setting [5] is: MDCK-MDR1, MDCKII-MDR1 (Papp A→B), at 10 µM, 2 h, 37 °C, unit inferred.

In the case of `C[C@](N)(c1ccc(F)cc1)c1cnc(N2CCN(c3ncnn4cc(-c5cnn(CCO)c5)cc34)CC2)nc1` [BLU-263], the “BBB permeability compared to avapritinib” value in series [1] was “less BBB permeable compared to avapritinib”.
By IC50 is commonly meant the concentration that gives 50% inhibition. One may read the EC50 as the midpoint of the concentration-response curve. In general, Papp B→A refers to the apparent permeability from the basolateral to the apical side of a cell layer. Broadly, the Papp A→B is how fast a substance crosses the layer from the apical side. Read a high Papp A→B as fast passage. For orientation: efflux ratio means a quotient of directional permeabilities that is used to spot active efflux. Regarding `Cn1cc(-c2cc3c(N4CCN(c5ncc([C@@](C)(NC(=O)c6ccccc6)c6ccc(F)cc6)cn5)CC4)ncnn3c2)cn1` [Compound 13], the 50% inhibitory concentration (IC50) at PDGFRA-D842V (mean ± s.d., n ≥ 3, ATP at KM (14 µM), read-out: HTRF IC50 PDGFRA-D842V) was ~0.2 nM and 0.2 nM; at PDGFRA-D842V (raw data of Table 1, independent experiments 1-3, unit from Table 1, read-out: HTRF IC50 PDGFRA-D842V, single determinations), 0.2 nM and 0.15 nM and 0.28 nM; at KIT-D816H (mean ± s.d., n ≥ 3, ATP at KM (12 µM), read-out: HTRF IC50 KIT-D816H), 2 ± 0.1 nM; at KIT-D816H (raw data of Table 1, independent experiments, unit from Table 1, read-out: HTRF IC50 KIT-D816H, single determinations), 2.1 nM (2×) and 1.8 nM. The “fold loss of potency compared to avapritinib, T1-a-D842V” value in the series on T1-a-D842V is listed as 3 fold. Besides, the GI50 in the series on GIST-T1 was determined as 287 ± 176 nM. Also, the “CTG GR50 SK-LMS-1” value with SK-LMS-1 is 9.498 ± 0.869 µM and 9.498 µM. For the same molecule, in the series with SK-LMS-1, the “CTG GR50 SK-LMS-1, single determinations” value is 8.494 µM and 10 µM. The EC50 in the series with ZR-75-1 (ZR-75-1, mean ± s.d., n = 3, control cell line, read-out: CTG EC50 ZR-75-1) is at least 10000 nM; in the series on ZR-75-1 (ZR-75-1, raw data of Supp. Tab. 2, independent experiments, unit from Supp. Tab. 2, read-out: CTG EC50 ZR-75-1, single determinations) it was at least 10000 nM; in the series on MDA-MB-175VII (Homo sapiens, MDA-MB-175-VII, read-out: CTG EC50 MDA-MB-175VII, mean ± s.d., n = 3, control cell line), at least 10000 nM; with MDA-MB-175VII (setting [4]) it was at least 10000 nM. In series [2], this molecule displayed a Papp B→A at 2 h, 10 µM of 0.47 ×10⁻⁶ cm/s. Moreover, the Papp A→B at 2 h, 10 µM in series [2] (setting [5]) came out at 3.5 ×10⁻⁶ cm/s; in series [2] (MDCK-MDR1, Papp A->B, MDCKII-MDR1, assay conc. 10, apical to basolateral), 3.46 ×10⁻⁶ cm/s. For the same molecule, the efflux ratio at 2 h, 10 µM in the series with MDR1 (MDCK-MDR1) came out at 0.13. Further, the recovery at 2 h, 10 µM in the series with MDR1 (MDCK-MDR1, Recovery A->B) turned out to be 81.4%; in the series with MDR1 (MDCK-MDR1, Recovery B->A) it was 63.6%. The “activity with respect to the control cell lines” value with GIST-48B (control cell lines (Table 1, Supplementary Table 2)) was “completely inactive”. In addition, in the series with GIST-48B (ratio of GR50 values), the “ratio GIST-48B/ T1-a-D842V” value worked out at 196. For the same molecule, the GIST-48B/D842V in the series on GIST-48B (ratio of GR50 values, source data sheet) was 196.
Consider `Cn1cc(-c2cc3c(N4CCN(c5ncc([C@@](C)(N)c6ccc(F)cc6)cn5)CC4)ncnn3c2)cn1` [ava (1), avapritinib], for which the GI50 was found to be 457 ± 240 nM with T1-T670I; 36 ± 10 nM with GIST-T1; 570 nM with T1-a-5258 (read-out: CTG GR50 T1-a-5258, single determinations, raw data of Supp. Tab. 1, independent experiments, unit from Supp. Tab. 1); 540 ± 30 nM in the series with T1-a-5258 (read-out: PDGFRA CTG GR50 T1-a-5258, mean ± s.d., n ≥ 3, triple mutant D842V, G652E, V658A); 256 nM with T1-V654A (read-out: CTG GR50 T1-V654A, single determinations, raw data of Supp. Tab. 1, independent experiments, unit from Supp. Tab. 1); 357 ± 142 nM with T1-V654A (read-out: KIT CTG GR50 T1-V654A, mean ± s.d., n ≥ 3 (* n = 2 for ava)). In the series with SK-LMS-1, the “CTG GR50 SK-LMS-1” value is 8.423 ± 2.731 µM and 8.423 µM. Also, in the series on SK-LMS-1, the “CTG GR50 SK-LMS-1, single determinations” value was 5.269 µM and 10 µM. Moreover, the “CTG GR50 T1-a-G680R, single determinations” value in the series with T1-a-G680R is 1455 nM and 1460 nM. Also, the EC50 is 5700 nM with MDA-MB-175VII (setting [4]); 5760 nM and 5880 nM in the series on MDA-MB-175VII (read-out: CTG EC50 MDA-MB-175VII, single determinations, raw data of Supp. Tab. 2, independent experiments, unit from Supp. Tab. 2); 5780 nM in the series with MDA-MB-175VII (read-out: CTG EC50 MDA-MB-175VII, mean ± s.d., n = 3, control cell line). In addition, the “KIT CTG GR50 T1-D816E” value in the series on T1-D816E is 67 ± 18 nM and 67 nM. Also, the overall response rates result in [3] was “more than 90%”. Further, the Papp B→A at 2 h, 10 µM in series [2] turned out to be 3.02 ×10⁻⁶ cm/s. Besides, the Papp A→B at 2 h, 10 µM in [2] (setting [5]) is 12.5 ×10⁻⁶ cm/s.
